Test results as given in ChEMBL document CHEMBL1135341, “Analogue based design of MMP-13 (Collagenase-3) inhibitors” (Bioorg Med Chem Lett, 2002).

Target: Collagenase 3 (Homo sapiens, UniProt P45452)
Experiment: Inhibitory activity against recombinant human matrix metalloprotease-13

SMILES	IC50 [nM]
COCCOCCC#CCC(NS(=O)(=O)c1ccc(-c2ccc(OC)cc2)cc1)C(=O)O (configuration not stated)	87.1
O=C(O)C(CC#Cc1ccccc1)NS(=O)(=O)c1ccc(C#Cc2ccccc2)cc1 (configuration not stated)	89.1
